Results reported in ChEMBL document CHEMBL1201862, “PubChem BioAssay data set” (2004).
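Test compounds were applied to cells in 96-well plates for 48 hours at 5 doses. GI50 = concentration required for 50% inhibition of growth.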 The source made the active and inactive calls. Rule as the data show it: active = GI50 up to about 1.1 µM and inactive = higher.

Assays:
Assay in all cases: NCI anticancer screen, dose series, 48 h
[1] = system: SF-268
[2] = system: MOLT-4
[3] = system: SK-MEL-5
[4] = system: LXFL 529
[5] = system: HCC 2998
[6] = system: IGROV-1
[7] = system: K562
[8] = system: NCI-H460
[9] = system: UACC-62
[10] = system: SN12C
[11] = system: RXF 393
[12] = system: A498
[13] = system: Malme-3M
[14] = system: 786-0
[15] = system: OVCAR-5
[16] = system: HOP-62
[17] = system: DU-145
[18] = system: T47D
[19] = system: Hs-578T
[20] = system: MCF7

| SMILES | GI50 [1] | GI50 [2] | GI50 [3] | GI50 [4] | GI50 [5] | GI50 [6] | GI50 [7] | GI50 [8] | GI50 [9] | GI50 [10] | GI50 [11] | GI50 [12] | GI50 [13] | GI50 [14] | GI50 [15] | GI50 [16] | GI50 [17] | GI50 [18] | GI50 [19] | GI50 [20] |
| --- | --- | --- | --- | --- | --- | --- | --- | --- | --- | --- | --- | --- | --- | --- | --- | --- | --- | --- | --- | --- |
| CCCN1CC=CCC1 | > 100 µM (inactive) | > 100 µM (inactive) | > 100 µM (inactive) | > 100 µM (inactive) | > 100 µM (inactive) | > 100 µM (inactive) | < 0.01 µM (active) | > 100 µM (inactive) | > 100 µM (inactive) | > 100 µM (inactive) | > 100 µM (inactive) | > 100 µM (inactive) | > 100 µM (inactive) | > 100 µM (inactive) | > 100 µM (inactive) | – | – | – | – | – |
| CCOc1ccc2c(c1)[n+]([O-])c(S(=O)(=O)c1ccc(C)cc1)c(N)[n+]2[O-] | > 100 µM (inactive) | > 100 µM (inactive) | > 100 µM (inactive) | > 100 µM (inactive) | > 100 µM (inactive) | > 100 µM (inactive) | > 100 µM (inactive) | > 100 µM (inactive) | > 100 µM (inactive) | – | – | > 100 µM (inactive) | > 100 µM (inactive) | > 100 µM (inactive) | > 100 µM (inactive) | > 100 µM (inactive) | – | – | – | – |
| Cc1ccc(S(=O)(=O)NNC(=O)Nc2cccc(C(F)(F)F)c2)cc1 | > 100 µM (inactive) | > 100 µM (inactive) | 33.3 µM (inactive) | – | > 100 µM (inactive) | > 100 µM (inactive) | 67.6 µM (inactive) | > 100 µM (inactive) | > 100 µM (inactive) | > 100 µM (inactive) | 85.7 µM (inactive) | > 100 µM (inactive) | > 100 µM (inactive) | > 100 µM (inactive) | > 100 µM (inactive) | > 100 µM (inactive) | > 100 µM (inactive) | > 100 µM (inactive) | > 100 µM (inactive) | 97.1 µM (inactive) |
| Cn1nnc2c(C(N)=S)ncn2c1=O | > 100 µM (inactive) | > 100 µM (inactive) | > 100 µM (inactive) | – | > 100 µM (inactive) | > 100 µM (inactive) | > 100 µM (inactive) | > 100 µM (inactive) | > 100 µM (inactive) | > 100 µM (inactive) | > 100 µM (inactive) | > 100 µM (inactive) | > 100 µM (inactive) | > 100 µM (inactive) | > 100 µM (inactive) | > 100 µM (inactive) | > 100 µM (inactive) | > 100 µM (inactive) | > 100 µM (inactive) | > 100 µM (inactive) |
| Oc1cc(-c2ccccn2)nc2cccc(F)c12 | – | > 100 µM (inactive) | 61.4 µM (inactive) | 74.1 µM (inactive) | 0.641 µM (active) | > 100 µM (inactive) | > 100 µM (inactive) | > 100 µM (inactive) | 95.3 µM (inactive) | > 100 µM (inactive) | > 100 µM (inactive) | – | – | > 100 µM (inactive) | > 100 µM (inactive) | > 100 µM (inactive) | – | – | – | – |
| C/C(=N/Nc1nc(C)cc(O)n1)C(=O)O | > 100 µM (inactive) | > 100 µM (inactive) | > 100 µM (inactive) | – | > 100 µM (inactive) | > 100 µM (inactive) | > 100 µM (inactive) | > 100 µM (inactive) | > 100 µM (inactive) | 19 µM (inactive) | > 100 µM (inactive) | > 100 µM (inactive) | > 100 µM (inactive) | > 100 µM (inactive) | > 100 µM (inactive) | > 100 µM (inactive) | > 100 µM (inactive) | > 100 µM (inactive) | > 100 µM (inactive) | > 100 µM (inactive) |
| Cc1cc(N(CCC#N)CCC#N)ccc1/C=C1N=C(/C=C/c2ccccc2)N(c2ccc(S(N)(=O)=O)cc2)C\1=O | > 100 µM (inactive) | > 100 µM (inactive) | > 100 µM (inactive) | > 100 µM (inactive) | – | > 100 µM (inactive) | > 100 µM (inactive) | > 100 µM (inactive) | > 100 µM (inactive) | > 100 µM (inactive) | – | > 100 µM (inactive) | > 100 µM (inactive) | > 100 µM (inactive) | > 100 µM (inactive) | > 100 µM (inactive) | – | – | – | – |
| O=C(NCCCCCCNC(=O)c1cccc2ccccc12)Nc1cccc2ccccc12 | > 100 µM (inactive) | > 100 µM (inactive) | > 100 µM (inactive) | – | > 100 µM (inactive) | > 100 µM (inactive) | > 100 µM (inactive) | > 100 µM (inactive) | > 100 µM (inactive) | > 100 µM (inactive) | > 100 µM (inactive) | > 100 µM (inactive) | > 100 µM (inactive) | > 100 µM (inactive) | > 100 µM (inactive) | > 100 µM (inactive) | > 100 µM (inactive) | > 100 µM (inactive) | > 100 µM (inactive) | > 100 µM (inactive) |
| COc1ccc(C(=O)Cc2c(C(=O)c3ccccc3)c3ccccc3n2C(=O)c2ccccc2)cc1 | > 100 µM (inactive) | 25.6 µM (inactive) | 17.7 µM (inactive) | 67.6 µM (inactive) | > 100 µM (inactive) | > 100 µM (inactive) | 51.3 µM (inactive) | 26.4 µM (inactive) | 94 µM (inactive) | – | – | – | > 100 µM (inactive) | > 100 µM (inactive) | > 100 µM (inactive) | > 100 µM (inactive) | – | – | – | – |
| CCCCCCSC[C@H](OC(C)=O)[C@@H](OC(C)=O)[C@@H](OC(C)=O)[C@@H](COC(C)=O)OC(C)=O | > 100 µM (inactive) | 26.9 µM (inactive) | 23.4 µM (inactive) | – | > 100 µM (inactive) | 83.8 µM (inactive) | 43.9 µM (inactive) | > 100 µM (inactive) | > 100 µM (inactive) | > 100 µM (inactive) | > 100 µM (inactive) | > 100 µM (inactive) | > 100 µM (inactive) | > 100 µM (inactive) | > 100 µM (inactive) | > 100 µM (inactive) | > 100 µM (inactive) | 38.6 µM (inactive) | > 100 µM (inactive) | 85.5 µM (inactive) |
| CN(NC(=O)c1ccco1)C1=NCCN1 | > 100 µM (inactive) | > 100 µM (inactive) | > 100 µM (inactive) | – | > 100 µM (inactive) | > 100 µM (inactive) | > 100 µM (inactive) | > 100 µM (inactive) | > 100 µM (inactive) | > 100 µM (inactive) | > 100 µM (inactive) | > 100 µM (inactive) | > 100 µM (inactive) | > 100 µM (inactive) | > 100 µM (inactive) | > 100 µM (inactive) | > 100 µM (inactive) | > 100 µM (inactive) | > 100 µM (inactive) | > 100 µM (inactive) |
| Cc1c(C(=O)/C=C/c2ccco2)[n+]([O-])c2ccccc2[n+]1[O-] | > 100 µM (inactive) | 39.6 µM (inactive) | – | > 100 µM (inactive) | > 100 µM (inactive) | > 100 µM (inactive) | 56.4 µM (inactive) | > 100 µM (inactive) | > 100 µM (inactive) | > 100 µM (inactive) | > 100 µM (inactive) | > 100 µM (inactive) | > 100 µM (inactive) | > 100 µM (inactive) | > 100 µM (inactive) | – | – | – | – | – |
| O=C(O)c1ccccc1C(=O)OCC1CCCN2CCCCC12 (centres undefined) | > 100 µM (inactive) | > 100 µM (inactive) | > 100 µM (inactive) | – | > 100 µM (inactive) | > 100 µM (inactive) | > 100 µM (inactive) | > 100 µM (inactive) | > 100 µM (inactive) | > 100 µM (inactive) | > 100 µM (inactive) | > 100 µM (inactive) | > 100 µM (inactive) | > 100 µM (inactive) | > 100 µM (inactive) | > 100 µM (inactive) | > 100 µM (inactive) | > 100 µM (inactive) | > 100 µM (inactive) | > 100 µM (inactive) |
| COC(=O)c1c(C)nc(C)c(NO)c1-c1ccccc1C(F)(F)F | 41.4 µM (inactive) | 26.1 µM (inactive) | 41.7 µM (inactive) | – | > 100 µM (inactive) | 18.8 µM (inactive) | 28.3 µM (inactive) | > 100 µM (inactive) | 64.9 µM (inactive) | 27 µM (inactive) | 16.7 µM (inactive) | > 100 µM (inactive) | 16.9 µM (inactive) | 16.4 µM (inactive) | 31.8 µM (inactive) | > 100 µM (inactive) | 32.8 µM (inactive) | 28 µM (inactive) | 62.4 µM (inactive) | 19.2 µM (inactive) |
| O=C(O)CNS(=O)(=O)c1ccc(NCc2ccccc2)cc1 | > 100 µM (inactive) | > 100 µM (inactive) | > 100 µM (inactive) | > 100 µM (inactive) | > 100 µM (inactive) | > 100 µM (inactive) | > 100 µM (inactive) | > 100 µM (inactive) | > 100 µM (inactive) | > 100 µM (inactive) | > 100 µM (inactive) | – | > 100 µM (inactive) | > 100 µM (inactive) | > 100 µM (inactive) | > 100 µM (inactive) | – | – | – | – |
| COc1ccc(Nc2[nH]c(C(C)=O)c(N)c2C(=S)Nc2ccccc2)cc1 | 29.6 µM (inactive) | > 100 µM (inactive) | 37.2 µM (inactive) | – | 28.2 µM (inactive) | 78.2 µM (inactive) | 45.9 µM (inactive) | 48.3 µM (inactive) | 25.9 µM (inactive) | 86.7 µM (inactive) | 16.6 µM (inactive) | > 100 µM (inactive) | 50.6 µM (inactive) | 42.5 µM (inactive) | > 100 µM (inactive) | > 100 µM (inactive) | > 100 µM (inactive) | 56.8 µM (inactive) | 74 µM (inactive) | 23.6 µM (inactive) |
